Assays:
[1] = biological target: T1, Human V2 Vasopressin Receptor (Homo sapiens, UniProt P30518); experiment: Binding to Membranes of Mouse Fibroblast Cell Line (LV-2) Transfected with the cDNA Expressing the Human V2 Vasopressin Receptor; details: ** LV-2 cells transfected with human V2 receptor cDNA; read-out: V2 IC50 (**human V2 receptor)
T1 construct: expressed in transfected cells; host or cells: mouse fibroblast cell line LV-2
Experimental: Binding to Membranes of Mouse Fibroblast Cell Line (LV-2) Transfected with the cDNA Expressing the Human V2 Vasopressin Receptor Membrane Preparation
Flasks of 175 ml capacity, containing attached cells grown to confluence, are cleared of culture medium by aspiration. The flasks containing the attached cells are rinsed with 2×5 ml of phosphate buffered saline (PBS) and the liquid aspirated off each time. Finally, 5 ml of an enzyme free dissociation Hank's based solution (Specialty Media, Inc., Lafayette, N.J.) is added and the flasks are left undisturbed for 2 min. The content of all flasks is poured into a centrifuge tube and the cells pelleted at 300×g for 15 min. The Hank's based solution is aspirated off and the cells homogenized with a polytron at setting #6 for 10 sec in 10.0 mM Tris.HCl buffer, pH 7.4 containing 0.25M sucrose and 1.0 mM EDTA. The homogenate is centrifuged at 1500×g for 10 min to remove ghost membranes. The supernatant fluid is centrifuged at 100,000×g for 60 min to pellet the receptor protein. Upon completion, the pellet is resuspended in a small volume of 50.0 mM Tris.HCl buffer, pH 7.4. The protein content is determined by the Lowry method and the receptor membranes are suspended in 50.0 mM Tris.HCl buffer containing 0.1 mM phenylmethylsulfonylfluoride (PMSF) and 0.2% bovine serum albumin (BSA) to give 2.5 mg receptor protein per ml of suspension.
For binding experiments, the following is added in μl volume to wells of a 96 well format of a microtiter plate: 100.0 μl of 100.0 mM Tris.HCl buffer containing 0.2% heat inactivated BSA, 10.0 mM MgCl2 and a mixture of protease inhibitors: leupeptin, 1.0 mg %; aprotinin, 1.0 mg %; 1,10-phenanthroline, 2.0 mg %; trypsin inhibitor, 10.0 mg % and 0.1 mM PMSF, 20.0 μl of [^3 H] Arginine^8, vasopressin (S.A. 75.0 Ci/mmole) at 0.8 nM and the reaction initiated by the addition of 80.0 μl of tissue membranes (200.0 μg tissue protein). The plates are left undisturbed on the bench top for 120 min to reach equilibrium. Non specific binding is assessed in the presence of 1.0 μm of unlabeled ligand, added in 20 μl volume. For test compounds, these are solubilized in 50% dimethylsulfoxide (DMSO) and added in 20.0 μl volume to a final incubation volume of 200 μl. Upon completion of binding, the content of each well is filtered off, using a Brandel® cell Harvester (Gaithersburg, Md.). The radioactivity trapped on the filter disk by the ligand-receptor complex is assessed by liquid scintillation counting in a Packard LS Counter, with an efficiency of 65% for tritium. The data are analyzed for IC50 values by the LUNDON-2 program for competition (LUNDON SOFTWARE, Ohio).

[2] = biological target: T2, Rat Kidney Medullary V2 Receptors (Rattus norvegicus, UniProt Q00788); experiment: biochemical; assay type: binding
T2 construct: Medullary tissues from rat kidneys are dissected out; from tissue; host or cells: rat kidney medulla membranes
T2 sequence (Q00788 whole entry): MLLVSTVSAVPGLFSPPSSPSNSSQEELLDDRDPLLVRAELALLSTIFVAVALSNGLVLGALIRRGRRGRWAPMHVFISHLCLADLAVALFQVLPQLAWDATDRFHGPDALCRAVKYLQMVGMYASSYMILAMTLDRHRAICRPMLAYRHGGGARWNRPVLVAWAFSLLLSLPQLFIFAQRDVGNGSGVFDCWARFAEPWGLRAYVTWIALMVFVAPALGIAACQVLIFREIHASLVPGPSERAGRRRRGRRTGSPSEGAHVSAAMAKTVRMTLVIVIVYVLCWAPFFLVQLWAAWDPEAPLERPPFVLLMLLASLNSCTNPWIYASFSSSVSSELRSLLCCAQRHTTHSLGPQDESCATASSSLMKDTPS

T1 sequence (P30518 whole entry): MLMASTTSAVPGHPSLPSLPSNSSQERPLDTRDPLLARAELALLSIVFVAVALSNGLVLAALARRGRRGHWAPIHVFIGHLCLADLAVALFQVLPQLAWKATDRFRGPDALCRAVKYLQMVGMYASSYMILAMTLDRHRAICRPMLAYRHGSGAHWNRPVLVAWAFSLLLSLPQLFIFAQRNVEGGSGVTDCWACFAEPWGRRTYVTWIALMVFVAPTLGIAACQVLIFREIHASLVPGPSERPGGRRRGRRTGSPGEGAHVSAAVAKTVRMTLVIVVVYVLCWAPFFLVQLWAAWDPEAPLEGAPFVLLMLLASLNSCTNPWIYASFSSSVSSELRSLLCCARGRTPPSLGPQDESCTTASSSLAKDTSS

Compound `Cc1ccc(F)cc1C(=O)Nc1ccc(C(=O)N2Cc3cccn3Cc3ccccc32)cn1` [Example 1, N-[5-(5H-Pyrrolo[2,1-c][1,4]benzodiazetin-10(11H)-ylcarbonyl)-2-pyridinyl]-5-fluoro-2-methylbenzamide] has an IC50 [1] of 5 nM and an IC50 [2] of 4 nM.

From US5753648A, “Tricyclic benzazepine vasopressin antagonists” (American Cyanamid Company, priority 1996, dated 1998)
